According to ChEMBL document CHEMBL3885861, “Open TG-GATES”:

Organism: Rattus norvegicus
Test: Open TG-GATES - Regimen: Single
Format: toxicity, organism-based, Sprague-Dawley
Design: regimen Single, gender Male, age 6 weeks
Conditions: in vivo, po, route gavage; for gamma-GTP / ALT / AST / CRE / Ca / Cl / DBIL / GLC / K / LDH / Na / PL / RALB / TBIL / TC / TG / TP / ALP: tissue Plasma; for KIDNEY_L / KIDNEY_R / KIDNEY_TOTAL: tissue Kidney; for LIVER: tissue Liver
[1] = 800 mg/kg, 3 h, dose level High
[2] = 800 mg/kg, 3 h, tissue Blood, dose level High
[3] = 800 mg/kg, 6 h, dose level High
[4] = 800 mg/kg, 6 h, tissue Blood, dose level High
[5] = 800 mg/kg, 9 h, dose level High
[6] = 800 mg/kg, 9 h, tissue Blood, dose level High
[7] = 800 mg/kg, 24 h, dose level High
[8] = 800 mg/kg, 24 h, tissue Blood, dose level High

## COc1ccc([C@@H]2Sc3ccccc3N(CCN(C)C)C(=O)[C@@H]2OC(C)=O)cc1 [DILTIAZEM]
240 mg/kg, 24 h, dose level Middle
  gamma-GTP: 1.2 IU/L
[1]
  TERMINAL_BW: 189.3 g
  KIDNEY_L: 0.8 g
  KIDNEY_R: 0.9 g
  KIDNEY_TOTAL: 1.7 g
  LIVER: 8.3 g
  ALT: 52.6 IU/L
  AST: 92 IU/L
  CRE: 0.2 mg/dL
  Ca: 10.7 mg/dL
  Cl: 103.8 meq/L
  DBIL: 0.008 mg/dL
  GLC: 193 mg/dL
  K: 4.4 meq/L
  LDH: 64.4 IU/L
  Na: 140.8 meq/L
  PL: 137.2 mg/dL
  RALB: 2.5 g/dL
  TBIL: 0.028 mg/dL
  TC: 76.8 mg/dL
  TG: 48.4 mg/dL
  TP: 5.2 g/dL
  gamma-GTP: 1 IU/L
[2]
  Bas: 0%
  Eos: 0.4%
  Fbg: 277.6 mg/dL
  Hb: 12.7 g/dL
  Ht: 39.2%
  Lym: 69.6%
  MCHC: 32.5%
  MCV: 65.1 fL
  Mono: 4.4%
  PT: 14.6 s
  Plat: 121.1 x10_4/uL
  RBC: 601.6 x10_4/ul
  WBC: 95.2 x10_2/uL
[3]
  TERMINAL_BW: 185.7 g
  KIDNEY_L: 0.8 g
  KIDNEY_R: 0.8 g
  KIDNEY_TOTAL: 1.7 g
  LIVER: 7.8 g
  ALT: 45 IU/L
  AST: 74.6 IU/L
  CRE: 0.2 mg/dL
  Ca: 10.7 mg/dL
  DBIL: 0.008 mg/dL
  GLC: 176 mg/dL
  K: 4 meq/L
  LDH: 59.2 IU/L
  Na: 143 meq/L
  PL: 158.8 mg/dL
  RALB: 2.5 g/dL
  TBIL: 0.032 mg/dL
  TC: 91.8 mg/dL
  TG: 40.6 mg/dL
  TP: 5.2 g/dL
  gamma-GTP: 1 IU/L
[4]
  APTT: 17.5 s
  Bas: 0.4%
  Eos: 0.8%
  Fbg: 311 mg/dL
  Hb: 13.3 g/dL
  Ht: 41.5%
  Lym: 77.6%
  MCHC: 32.1%
  MCV: 66 fL
  Mono: 3.2%
  PT: 14.7 s
  Plat: 126.6 x10_4/uL
  RBC: 629 x10_4/ul
  WBC: 95.6 x10_2/uL
[5]
  TERMINAL_BW: 185.3 g
  KIDNEY_L: 0.8 g
  KIDNEY_R: 0.8 g
  KIDNEY_TOTAL: 1.6 g
  LIVER: 7.2 g
  ALP: 1763.8 IU/L
  ALT: 48.4 IU/L
  AST: 81.2 IU/L
  CRE: 0.2 mg/dL
  Ca: 10.4 mg/dL
  Cl: 105.8 meq/L
  DBIL: 0.01 mg/dL
  GLC: 170.2 mg/dL
  K: 4.2 meq/L
  LDH: 53.6 IU/L
  Na: 142.4 meq/L
  PL: 144.8 mg/dL
  RALB: 2.6 g/dL
  TBIL: 0.026 mg/dL
  TC: 78.4 mg/dL
  TG: 59 mg/dL
  TP: 5.3 g/dL
  gamma-GTP: 1.2 IU/L
[6]
  Bas: 0%
  Eos: 0.8%
  Fbg: 316.2 mg/dL
  Hb: 12.6 g/dL
  Ht: 38.6%
  Lym: 74.8%
  MCHC: 32.6%
  MCV: 62.9 fL
  Mono: 2.8%
  PT: 14.7 s
  Plat: 132.9 x10_4/uL
  RBC: 613 x10_4/ul
  WBC: 97 x10_2/uL
[7]
  TERMINAL_BW: 195.5 g
  KIDNEY_L: 0.9 g
  KIDNEY_R: 0.9 g
  KIDNEY_TOTAL: 1.7 g
  LIVER: 9.3 g
  ALP: 2052.4 IU/L
  ALT: 41.2 IU/L
  AST: 66.6 IU/L
  CRE: 0.2 mg/dL
  Ca: 11.1 mg/dL
  Cl: 107.6 meq/L
  DBIL: 0.02 mg/dL
  GLC: 168.6 mg/dL
  K: 4.3 meq/L
  LDH: 87.2 IU/L
  Na: 144 meq/L
  PL: 144.8 mg/dL
  RALB: 2.7 g/dL
  TBIL: 0.018 mg/dL
  TC: 77.4 mg/dL
  TG: 108.6 mg/dL
  TP: 5.6 g/dL
  gamma-GTP: 1 IU/L
[8]
  Bas: 0%
  Eos: 0.8%
  Fbg: 299 mg/dL
  Ht: 39.9%
  Lym: 76.6%
  MCHC: 33%
  MCV: 64.4 fL
  Mono: 4.4%
  PT: 15 s
  Plat: 125.7 x10_4/uL
  RBC: 621.2 x10_4/ul
  WBC: 83.8 x10_2/uL
